Experimental data taken from patent publication US20220380334A1, “(-) - CIS TETRAHYDROCANNABINOL ((-) - CIS-THC) FOR USE AS A MEDICAMENT” (GW Research Limited, priority 2019, published 2022).
“Also recorded” adds a separate entry of the source. Marks after values point to notes of the source that are not given here.

Columns and labels:
[1] = system: tonic hind limb convulsions; experiment: Mouse supramaximal electroshock seizure (MES) model of generalized seizures; type: in vivo
Procedure: Mice were administered MES (30 mA, rectangular current: 0.6 ms pulse width, 0.2 s duration, 50 Hz) via corneal electrodes connected to a constant current shock generator (Ugo Basile: type 7801) to reliably produce tonic hind limb convulsions. The number of tonic convulsions was recorded.
Sixteen mice were studied per group. The test was performed blind.
The test substance, (−)-cis-THC, was evaluated at 4 doses (10, 50, 100 and 150 mg/kg), administered i.p. 60 minutes before MES, and compared with a vehicle control group (administered under the same experimental conditions).
Valproate (positive control) was administered at 250 mg/kg i.p. 30 minutes before MES, was used as a reference substance and was compared with a vehicle group (administered i.p. 60 minutes before MES).
Data was analysed by comparing treated groups with the appropriate vehicle control using 2-tailed Fisher's Exact Probability tests (p<0.05 considered significant).

[2] = system: withdrawal threshold on hot plate at 52° C.; experiment: Mouse hotplate test of anti-nociceptive potential; type: in vivo; conditions: for Withdrawal threshold (sec) Mean +/− SEM: hot plate 52° C.
Procedure: Mice underwent a minimum habituation period of 7 days prior to study commencement. Naïve mice were acclimatised to the procedure room in their home cages, with food and water available ad libitum.
Animals were treated with either treatment vehicle, (−)-cis-THC at 1, 15, 50, 100, 125 and 150 mg/kg at 10 ml/kg i.p. or Morphine 10 mg/kg or Morphine vehicle (Saline) at 10 ml/kg i.p.
Animals were placed onto a hot plate set at 52° C. and time to withdrawal threshold (first response of lifting, licking front or hind paws or trying to escape) was taken at 1-hour post treatment, or at 0.5 hour after the positive control.
Animals were culled by a schedule 1 method, immediately after the measurement.
Data were analysed by comparing withdrawal thresholds back to Vehicle treated group

[3] = depending on the assay; cited from earlier work

## CCCCCc1cc(O)c2c(c1)OC(C)(C)[C@H]1CCC(C)=C[C@@H]21 (relative stereo) [(−)-cis-THC, (−)-cis-delta-9-tetrahydrocannabinol]
[1]; 10 mg/kg I.P., pre-treatment time 60 mins
  % change from vehicle in number of tonic clonic seizures after MES: No effect
[1]; 10 mg/kg I.P., pre-treatment time 60 mins, listed as (-)-cis-THC
  % change from vehicle in number of tonic clonic seizures after MES: 0.0%
[1]; 50 mg/kg I.P., pre-treatment time 60 mins
  % change from vehicle in number of tonic clonic seizures after MES: 25%
[1]; 50 mg/kg I.P., pre-treatment time 60 mins, listed as (-)-cis-THC
  % change from vehicle in number of tonic clonic seizures after MES: 25.0%
[1]; 100 mg/kg I.P., pre-treatment time 60 mins
  % change from vehicle in number of tonic clonic seizures after MES: 6.3%
[1]; 150 mg/kg I.P., pre-treatment time 60 mins
  % change from vehicle in number of tonic clonic seizures after MES: 25%
[1]; 150 mg/kg I.P., pre-treatment time 60 mins, listed as (-)-cis-THC
  % change from vehicle in number of tonic clonic seizures after MES: 25.0%
[1]; 10, 50, 100 and 150 mg/kg i.p.
  anti-convulsant effect in the MES model (overall conclusion): did not produce a significant anti-convulsant effect
[2]; 1 mg/kg I.P., 1-hour post treatment
  Withdrawal threshold (sec) Mean +/− SEM: 10.99 ± 0.92 s
[2]; 15 mg/kg I.P., 1-hour post treatment
  Withdrawal threshold (sec) Mean +/− SEM: 10.22 ± 0.94 s
[2]; 50 mg/kg I.P., 1-hour post treatment
  Withdrawal threshold (sec) Mean +/− SEM: 12.68 ± 1.11 s
[2]; 100 mg/kg I.P., 1-hour post treatment
  Withdrawal threshold (sec) Mean +/− SEM: 14.23 ± 1.37 s
[2]; 125 mg/kg I.P., 1-hour post treatment
  Withdrawal threshold (sec) Mean +/− SEM: 15.28 ± 1.19 s
[2]; 1 to 150 mg/kg i.p.
  anti-nociceptive effect in the hotplate test (overall, in words): dose-related increase in withdrawal threshold; also recorded: significant anti-nociceptive effect

## CCCCCc1cc(O)c2c(c1)OC(C)(C)[C@@H]1CCC(C)=C[C@@H]21 [(−)-trans-THC, (−)-trans-delta-9-tetrahydrocannabinol]
[3]
  potency relative to the (+)-trans-THC isomer: 6-100 times

## CN1CC[C@]23c4c5ccc(O)c4O[C@H]2[C@@H](O)C=C[C@H]3[C@H]1C5 [Morphine, reference compound]
[2]; 10 mg/kg I.P., 0.5 hour after treatment
  Withdrawal threshold (sec) Mean +/− SEM: 23.17 +/− 1.54 *** sec
[2]; 10 mg/kg I.P., 0.5 hour after treatment, listed as morphine
  Withdrawal threshold (sec) Mean +/− SEM: significant increase

## CCCC(CCC)C(=O)O [Valproate, reference compound]
[1]; 250 mg/kg I.P., pre-treatment time 30 mins
  % change from vehicle in number of tonic clonic seizures after MES: 93.8%
